What was measured:
[1] = test system: SK-OV-3; experiment: Cytotoxicity against human SKOV3 cells after 48 hrs by Neutral red assay; assay type: functional, cell-based
[2] = test system: SK-MEL; experiment: Cytotoxicity against human SK-MEL cells after 48 hrs by Neutral red assay; assay type: functional, cell-based
[3] = test system: BT-549; experiment: Cytotoxicity against human BT549 cells after 48 hrs by Neutral red assay; assay type: functional, cell-based
[4] = test system: Vero; experiment: Cytotoxicity against african green monkey Vero cells after 48 hrs by Neutral red assay; assay type: cell-based, Chlorocebus sabaeus
[5] = test system: Staphylococcus aureus; experiment: Antimicrobial activity against methicillin resistant Staphylococcus aureus ATCC 43300; assay type: functional, organism-based
[6] = test system: Mycobacterium intracellulare; experiment: Antimicrobial activity against […] Mycobacterium intracellular ATCC 23068; assay type: functional, organism-based
[7] = Homo sapiens, SK-OV-3, 48 h, read-out: IC50
[8] = Homo sapiens, SK-MEL, 48 h, read-out: IC50
[9] = Homo sapiens, BT-549, 48 h, read-out: IC50
[10] = Chlorocebus sabaeus, Vero, 48 h, read-out: IC50
[11] = Staphylococcus aureus, ATCC 43300, read-out: IC50
[12] = Mycobacterium intracellulare, ATCC 23068, read-out: IC50

| Structure (SMILES) | IC50 ([1]; sk-ov-3) | IC50 ([2]; sk-mel) | IC50 ([3]; bt-549) | IC50 ([4]; vero) | IC50 [5] | IC50 [6] | IC50 [1, 7] | IC50 [2, 8] | IC50 [3, 9] | IC50 [4, 10] | IC50 [5, 11] | IC50 [6, 12] | IC50 ([6]; Mycobacterium intracellulare, ATCC 23068) |
| --- | --- | --- | --- | --- | --- | --- | --- | --- | --- | --- | --- | --- | --- |
| CC(=O)O[C@@H]1C[C@@H]2[C@@]3(C)CCCC(C)(C)[C@@H]3CC[C@@]2(C)[C@@H]2CC=C3C(=O)O[C@@H](O)[C@@H]3[C@@]12C | Not Active | Not Active | Not Active | Not Active | Not Active | Not Active |  |  |  |  |  |  |  |
| CO[C@@H]1O[C@@H](OC)[C@H]2C1=CC[C@H]1[C@]3(C)CC[C@H]4C(C)(C)CCC[C@]4(C)[C@H]3C[C@@H](O)[C@]21C | Not Active | Not Active | Not Active | Not Active | Not Active | Not Active |  |  |  |  |  |  |  |
| CC1(C)CCC[C@]2(C)[C@H]3C[C@@H](O)[C@]4(C)[C@H](C=O)C(C=O)=CC[C@H]4[C@]3(C)CC[C@@H]12 |  |  |  |  |  | Not Active | 19.4 µM | 18.6 µM | 12.9 µM | 20.7 µM | 3.8 µM |  |  |
| CC(=O)O[C@@H]1C[C@@H]2[C@@]3(C)CCCC(C)(C)[C@@H]3CC[C@@]2(C)[C@@H]2CC=C(C=O)[C@H](C=O)[C@@]12C |  |  |  |  |  | Not Active | 23.3 µM | > 42.7 µM | 21 µM | 22.2 µM | 6.3 µM |  |  |
| CC(=O)O[C@@H]1OC=C2[C@@H](OC(C)=O)C[C@H]3[C@]4(C)CC[C@H]5C(C)(C)CCC[C@]5(C)[C@H]4C[C@@H](OC(C)=O)[C@]3(C)[C@H]21 [HETERONEMIN ACETATE] |  |  |  |  | Not Active |  | 18.8 µM | 16.7 µM | 18.8 µM | 9 µM |  | 18.8 µM |  |
| CO[C@H]1O[C@@H](OC)[C@H]2C1=CC[C@H]1[C@]3(C)CC[C@H]4C(C)(C)CCC[C@]4(C)[C@H]3C[C@@H](O)[C@]21C | Not Active | Not Active | Not Active | Not Active | Not Active | Not Active |  |  |  |  |  |  |  |
| CC1(C)CCC[C@]2(C)[C@H]3C[C@@H](O)[C@]4(C)C(CO)C(CO)=CC[C@H]4[C@]3(C)CC[C@@H]12 (some centres undefined) | Not Active | Not Active | Not Active | Not Active | Not Active | Not Active |  |  |  |  |  |  |  |
| CC1(C)CCC[C@]2(C)[C@H]3C[C@@H](O)[C@]4(C)c5cocc5C=C[C@H]4[C@]3(C)CC[C@@H]12 | Not Active | Not Active | Not Active | Not Active | Not Active | Not Active |  |  |  |  |  |  |  |
| CC1(C)CCC[C@]2(C)[C@H]3C[C@@H](O)[C@]4(C)[C@@H](C=O)C(C=O)=CC[C@H]4[C@]3(C)CC[C@@H]12 |  |  |  |  |  |  | 31 µM | 26.4 µM | 19.4 µM | 19.4 µM | 22 µM | 38.8 µM |  |
| CC(=O)O[C@@H]1OCC2[C@@H](OC(C)=O)C[C@H]3[C@]4(C)CC[C@H]5C(C)(C)CCC[C@]5(C)[C@H]4C[C@@H](O)[C@]3(C)[C@H]21 (some centres undefined) |  |  |  |  | Not Active | Not Active | 18.3 µM | > 37.3 µM | 15.9 µM | 36.7 µM |  |  |  |
| COc1cccc2c1C(=O)c1c(O)c3c(c(O)c1C2=O)C[C@@](O)(C(=O)CO)C[C@@H]3O[C@H]1C[C@H](N)[C@H](O)[C@H](C)O1 [DOXORUBICIN] |  |  |  |  |  |  | 0.8 µM | 1.2 µM | 1.2 µM | 6.3 µM |  |  |  |
| CC1(C)CCC[C@]2(C)[C@H]3CC(=O)[C@]4(C)[C@@H](C=O)C(C=O)=CC[C@H]4[C@]3(C)CC[C@@H]12 |  |  |  |  |  | Not Active | 41.6 µM | 14.6 µM | 15.6 µM | 18.2 µM | 27.8 µM |  |  |
| CC1(C)CCC[C@]2(C)[C@H]3C[C@@H](O)[C@]4(C)c5cocc5[C@@H](O)C[C@H]4[C@]3(C)CC[C@@H]12 [SESTERSTATIN 5] | Not Active | Not Active | Not Active | Not Active | Not Active | Not Active |  |  |  |  |  |  |  |
| CC(=O)O[C@H]1C[C@H]2[C@]3(C)CC[C@H]4C(C)(C)CCC[C@]4(C)[C@H]3C[C@@H](O)[C@]2(C)c2cocc21 [SCALARAFURAN] | Not Active | Not Active | Not Active | Not Active | Not Active | Not Active |  |  |  |  |  |  |  |
| CO[C@@H]1C[C@H]2[C@]3(C)CC[C@H]4C(C)(C)CCC[C@]4(C)[C@H]3C[C@@H](O)[C@]2(C)c2cocc21 [16-O-METHYLSESTERSTATIN 4] | Not Active | Not Active | Not Active | Not Active | Not Active | Not Active |  |  |  |  |  |  |  |
| CC(=O)O[C@@H]1OC=C2[C@@H](OC(C)=O)C[C@H]3[C@]4(C)CC[C@H]5C(C)(C)CCC[C@]5(C)[C@H]4CC(=O)[C@]3(C)[C@H]21 |  | Not Active |  |  | Not Active |  | > 37.6 µM |  | > 37.6 µM | > 37.6 µM |  | 5.1 µM |  |
| O=C(O)c1cn(C2CC2)c2cc(N3CCNCC3)c(F)cc2c1=O [CIPROFLOXACIN] |  |  |  |  |  |  |  |  |  |  | 0.14 µM |  | 0.47 µM |
| CC(=O)O[C@@H]1OC=C2[C@@H](OC(C)=O)C[C@H]3[C@]4(C)CC[C@H]5C(C)(C)CCC[C@]5(C)[C@H]4C[C@@H](O)[C@]3(C)[C@H]21 [HETERONEMIN] |  |  |  |  | Not Active |  | 3.4 µM | 15.3 µM | 11.2 µM | 8.2 µM |  | 2.04 µM |  |
| CC1(C)CCC[C@]2(C)[C@H]3C[C@@H](O)[C@]4(C)[C@H]5COC(=O)C5=CC[C@H]4[C@]3(C)CC[C@@H]12 | Not Active | Not Active | Not Active | Not Active | Not Active | Not Active |  |  |  |  |  |  |  |
| CC1(C)CCC[C@]2(C)[C@H]3CC(=O)[C@]4(C)[C@H](C=O)C(C=O)=CC[C@H]4[C@]3(C)CC[C@@H]12 |  |  |  |  |  | Not Active | 31.2 µM | 14.3 µM | 15.6 µM | 15.6 µM | 30.1 µM |  |  |
